According to US20220009914A1, “Analogs of Nitrofuran Antibiotics to Combat Resistance” (The Trustees of Indiana University, priority 2020, published 2022):
Like-named read-outs stand apart in the source and are kept apart here.

Assays:
[1] = molecular target: T1, native MDH (Sus scrofa, UniProt P00346); assay: native MDH activity counter-screen in the presence of E. coli NfsB nitroreductase; assay type: biochemical, pig
T1 sequence (P00346 25-338): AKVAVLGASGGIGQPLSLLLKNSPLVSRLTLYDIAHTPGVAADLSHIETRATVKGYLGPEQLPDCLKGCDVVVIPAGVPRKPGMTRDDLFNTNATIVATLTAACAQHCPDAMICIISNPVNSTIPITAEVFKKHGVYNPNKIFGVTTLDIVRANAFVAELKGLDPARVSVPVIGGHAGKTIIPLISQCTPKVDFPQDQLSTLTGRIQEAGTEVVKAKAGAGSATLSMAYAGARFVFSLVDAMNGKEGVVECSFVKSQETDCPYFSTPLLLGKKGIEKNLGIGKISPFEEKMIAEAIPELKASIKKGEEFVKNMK
Protocol: Evaluating compounds for inhibition in the GroEL/ES-mediated dMDH refolding assay and native MDH activity counter-screen in the presence of E. coli NfsB nitroreductase. These assays were performed nearly identically to those mentioned above, but with a couple distinct modifications. […] The remainder of the assay was conducted as in our standard protocol where no NfsB nitroreductase was present. […] Results presented represent the averages of IC50 values obtained from at least four replicates in each assay.

[2] = tested on: Enterobacter cloacae strain CDC 442-68 (ATCC #13047); assay: bacterial proliferation assay, E. cloacae; assay type: cell-based; details: ATCC13047, read-out: Bacterial Proliferation EC50 E. cloacae
Protocol: All compounds were evaluated for inhibiting the proliferation of E. coli and each of the ESKAPE bacteria. Results presented represent the averages of EC50 values obtained from at least four replicates. Evaluating compounds for inhibition of bacterial cell proliferation.
Growth Media: E. coli were grown with LB medium and all ESKAPE bacteria were grown in Brain Heart Infusion (BHI) medium (Becton, Dickinson and Company), with all liquid cultures supplemented with 25 mg/L Ca^2+ and 12.5 mg/L Mg^2+ to mimic physiological free concentrations of these cations. A 10 mg/mL Ca^2+ stock solution was prepared by dissolving 1.84 g of CaCl2.2H2O in 50 mL of deionized water, and a 10 mg/mL Mg^2+ stock solution was prepared by dissolving 4.18 g of MgCl2.6H2O in 50 mL deionized water—filter sterilized using 0.2 μm cellulose-acetate filters. 2.5 mL of the sterile 10 mg/mL Ca^2+ stock and 1.25 mL of the sterile 10 mg/mL Mg^2+ stock solutions were added per 1 L of autoclaved LB or BHI media to obtain 25 mg/L Ca^2+ and 12.5 mg/L Mg^2+ ions, respectively.
General Assay Protocol: Stock bacterial cultures were streaked onto LB or BHI agar plates and grown overnight at 37° C. Fresh aliquots of cation supplemented media were inoculated with single bacterial colonies and the cultures were grown overnight at 37° C. with shaking (240 rpm). The following morning, cultures were diluted 10-fold into fresh media and grown at 37° C. until bacteria had reached mid-log phase growth (OD600˜0.4-0.6). The cultures were then diluted into fresh media to achieve final OD600 readings of 0.017. Aliquots of these diluted cultures (30 μL) were added to clear, flat-bottom 384-well polystyrene plates that were previously stamped with 0.5 μL of test compounds in 20 μL of media (yielding initial OD600=0.01 bacterial cultures). All compounds were tested in dose-response with concentration ranges during the proliferation assays from 100 μM to 46 nM (3-fold dilution series). A second set of baseline control plates were prepared analogously, but without any bacteria added, to correct for possible compound absorbance and/or precipitation. […] Plates were then read at 600 nm using a Molecular Devices SpectraMax Plus384 microplate reader. […] Results presented represent the averages of EC50 values obtained from at least four replicates.
Evaluating analogs for inhibiting the growth of E. coli and the ESKAPE bacteria. Analogs were initially tested for antibacterial efficacy against representative strains of antibiotic-sensitive E. coli and the ESKAPE bacteria. To determine compound efficacy, bacterial proliferation assays were carried out in liquid media culture supplemented with physiological concentrations of free calcium and magnesium cations. For these assays, bacterial cultures (OD600=0.01) were exposed to test compounds in 8-point, 3-fold dilution series (100 μM to 46 nM concentration range), in 384-well plates. After addition of compounds to cultures, the plates were sealed with Breathe-Easy gas permeable membranes and allowed to grow to mid-log phase (OD600˜0.4-0.6), whereupon final OD600 readings were taken to assess for bacterial growth and inhibition.

[3] = in vitro; details: human
Protocol: (§1) Evaluating compound effects on the viability of human colon and small intestine cells. […] Evaluating compound effects on the viability of human colon and small intestine cells. Evaluation of compound cytotoxicities to FHC colon and FHs 74 Int small intestine cells were performed using Alamar Blue-based viability assays. […] FHs 74 Int cells were maintained in Hybri-care medium (ATCC 46-X) supplemented with 30 ng/mL recombinant epidermal growth factor (EGF) and 10% FBS (Midwest Scientific, USDAFBS).

[4] = in vitro; details: human; remark: listed apart in the source
Protocol: as §1

[5] = with E. coli NfsB nitroreductase, read-out: Native MDH Activity w/NfsB IC50

In the case of O=C(N/N=C/c1ccc([N+](=O)[O-])o1)c1ccc(NS(=O)(=O)c2ccc(Br)cc2)cc1 [Compound 27, 4-bromo-N-(4-(2-((5-nitrofuran-2-yl)methylene)hydrazine-1-carbonyl)phenyl)benzenesulfonamide], the IC50 [1] is reported as over 56 µM, the EC50 [2] is reported as over 100 µM and the CC50 at 48 h [3] is reported as 90 µM. The CC50 at 48 h [4] was over 100 µM.
In the case of CCN(CC)S(=O)(=O)c1cccc(C(=O)N/N=C/c2ccc([N+](=O)[O-])o2)c1 [Compound 25, N,N-diethyl-3-(2-((5-nitrofuran-2-yl)methylene)hydrazine-1-carbonyl)benzenesulfonamide], the IC50 [1, 5] is reported as over 56 µM, the EC50 [2] is reported as over 100 µM and the CC50 at 48 h [3] is reported as over 100 µM. It also gave a CC50 at 48 h [4] of over 100 µM.
CCOc1ccc(S(=O)(=O)Nc2ccc(C(=O)N/N=C/c3ccc(O)c4ncccc34)cc2)cc1 [Compound 15, 4-ethoxy-N-(4-(2-((8-hydroxyquinolin-5-yl)methylene)hydrazine-1-carbonyl)phenyl)benzenesulfonamide] gave an IC50 [1, 5] of over 56 µM and an EC50 [2] of over 100 µM.
With CCOc1ccc(S(=O)(=O)Nc2ccc(C(=O)N/N=C/c3ccc([N+](=O)[O-])o3)cc2)cc1 [Compound 28, 4-ethoxy-N-(4-(2-((5-nitrofuran-2-yl)methylene)hydrazine-1-carbonyl)phenyl)benzenesulfonamide] the IC50 [1, 5] was over 56 µM, the EC50 [2] was over 100 µM and the CC50 at 48 h [3] was 85 µM. It also gave a CC50 at 48 h [4] of over 100 µM.
COc1ccc(C(=O)N/N=C/c2ccc(O)c3ncccc23)cc1 [Compound 1, N′-((8-hydroxyquinolin-5-yl)methylene)-4-methoxybenzohydrazide] showed an IC50 [1, 5] of over 56 µM and an EC50 [2] of 100 µM.
Work on O=C(N/N=C/c1ccc(O)cc1)c1ccccc1 [Compound 36, N′-(4-hydroxybenzylidene)benzohydrazide] yielded an IC50 [1, 5] of over 56 µM, an EC50 [2] of over 100 µM and a CC50 at 48 h [3] of over 100 µM. It also gave a CC50 at 48 h [4] of over 100 µM.
Compound O=C(N/N=C/c1ccc(O)c2ncccc12)c1cccc2ccccc12 [Compound 9, N′-((8-hydroxyquinolin-5-yl)methylene)-1-naphthohydrazide] has an IC50 [1, 5] of over 56 µM and an EC50 [2] of over 100 µM.
For O=C(N/N=C/c1ccc(O)c2ncccc12)c1ccc(O)cc1 [Compound 7, 4-hydroxy-N′-((8-hydroxyquinolin-5-yl)methylene)benzohydrazide], the IC50 [1, 5] was over 56 µM, the EC50 [2] was 97 µM and the CC50 at 48 h [3] was over 100 µM. It also gave a CC50 at 48 h [4] of 67 µM.
O=C(N/N=C/c1ccc([N+](=O)[O-])o1)c1ccccc1Oc1ccccc1 [Compound 23, N′-((5-nitrofuran-2-yl)methylene)-2-phenoxybenzohydrazide] showed an IC50 [1, 5] of over 56 µM and an EC50 [2] of over 100 µM.
With CN(C)c1ccc(C(=O)N/N=C/c2ccc(O)c3ncccc23)cc1 [Compound 8, 4-(dimethylamino)-N′-((8-hydroxyquinolin-5-yl)methylene)benzohydrazide] the IC50 [1, 5] was over 56 µM and the EC50 [2] was over 100 µM.
Compound COc1ccc(C(=O)NN)cc1 [Compound 42, reference compound] has an IC50 [1, 5] of over 56 µM, an EC50 [2] of over 100 µM and a CC50 at 48 h [3] of over 100 µM. For the same compound, the CC50 at 48 h [4] was over 100 µM.
For O=[N+]([O-])c1ccc(O)c2ncccc12 [Nitroxoline, reference compound], the IC50 [1, 5] was over 56 µM and the EC50 [2] was 6.6 µM.
Compound O=C(N/N=C/c1ccc(O)c2ncccc12)c1ccc(Cl)s1 [Compound 4, 5-chloro-N′-((8-hydroxyquinolin-5-yl)methylene)thiophene-2-carbohydrazide] has an IC50 [1, 5] of over 56 µM and an EC50 [2] of over 100 µM.
